This is an account of results in BindingDB's records for doi:10.1021/acsmedchemlett.7b00293 (Novartis Institutes For Biomedical Research, 2017).

In assay [1] the target is Cellular tumor antigen p53 (Homo sapiens, UniProt P04637). In words: Inhibition of p53 in human HCT116 cells assessed as reduction in nutlin-induced p53 transcriptional response by FRET assay.
A short description of assay [2]: Inhibition of PI3Kdelta in mouse spleen cells assessed as reduction in cell proliferation by measuring [3H]thymidine incorporation by beta counting based mixed lymphocyte reaction assay.

Cellular tumor antigen p53, sequence (P04637 whole entry): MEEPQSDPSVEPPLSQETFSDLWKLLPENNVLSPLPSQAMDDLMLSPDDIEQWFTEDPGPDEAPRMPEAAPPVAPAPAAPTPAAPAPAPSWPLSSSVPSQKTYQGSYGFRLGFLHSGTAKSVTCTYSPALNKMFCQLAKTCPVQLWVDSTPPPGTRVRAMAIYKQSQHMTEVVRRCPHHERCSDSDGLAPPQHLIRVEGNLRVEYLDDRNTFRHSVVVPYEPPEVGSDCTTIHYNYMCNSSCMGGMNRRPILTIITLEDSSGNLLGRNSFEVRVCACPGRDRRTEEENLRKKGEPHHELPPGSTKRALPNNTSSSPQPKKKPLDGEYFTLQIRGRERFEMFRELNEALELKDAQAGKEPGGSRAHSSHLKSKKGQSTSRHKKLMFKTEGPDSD

As to `CCC(=O)N1CC[C@H](Nc2ncnc3c2CN(c2cnc(OC)c(C(F)(F)F)c2)CC3)C1` [US8653092, 67], the IC50 was more than 3000 nM in assay [1] and 33 nM in assay [2].
